Source: US4965351A, “4-demethoxy-4-amino-anthracyclines” (Farmitalia Carlo Erba S.R.L., priority 1987, dated 1990)
≈ marks a conversion by molar mass, not a printed value. Where two headings read alike, the source gives them in different places.

How the values were obtained:
[1] = test system: human colon adenocarcinoma cells sensitive (LoVo) to doxorubicin; assay: Colony inhibition test after 4 h treatment, LoVo (in vitro cytotoxicity); format: cell-based; details: read-out: LoVo ID50
Protocol: (§1) The glycosides are antitumor agents. The activity of a representative compound of formula (I), 4-demethoxy-4-amino-daunorubicin (Ia), has been assessed by comparing its in vitro cytotoxicity against that of daunorubicin (DNR) in human colon adenocarcinoma cells sensitive (LoVo) or resistant (LoVo/DX) to doxorubicin.
(§2) Colony inhibition test after 4 h. treatment.

[2] = test system: human colon adenocarcinoma cells resistant (LoVo/DX) to doxorubicin; assay: Colony inhibition test after 4 h treatment, LoVo/DX (in vitro cytotoxicity); format: cell-based; details: read-out: LoVo/DX ID50
Protocol: as §1, §2

[3] = test system: disseminated Gross leukaemia; assay: In vivo activity against disseminated Gross leukaemia in mice, treatment i.v. on day 1 after tumor inoculum
Description: The in vivo activities of (Ia) and DNR against disseminated Gross leukaemia in mice also determined.
Treatment i.v on day 1 after tumor inoculum
TOX represents toxic death

COc1cccc2c1C(=O)c1c(O)c3c(c(O)c1C2=O)C[C@@](O)(C(C)=O)C[C@@H]3O[C@H]1C[C@H](N)[C@H](O)[C@H](C)O1 [DNR, daunorubicin]
IC50 ([1]; LoVo, 4 h): 50.3 µg/mL (≈ 95.4 µM)
IC50 [2]: 1800 µg/mL (≈ 3420 µM)
T/C % ([3]; 10 mg/Kg i.v. on day 1): 133%
TOX (toxic death) ([3]; 10 mg/Kg i.v. on day 1): 0/10
T/C % ([3]; 15 mg/Kg i.v. on day 1): 167%
TOX (toxic death) ([3]; 15 mg/Kg i.v. on day 1): 0/10
T/C % ([3]; 22.5 mg/Kg i.v. on day 1): 200%
TOX (toxic death) ([3]; 22.5 mg/Kg i.v. on day 1): 1/10

CC(=O)[C@]1(O)Cc2c(O)c3c(c(O)c2[C@@H](O[C@H]2C[C@H](N)[C@H](O)[C@H](C)O2)C1)C(=O)c1c(N)cccc1C3=O [Ia, 4-demethoxy-4-amino-daunorubicin]
IC50 ([1]; LoVo cells (doxorubicin-sensitive), 4 h treatment, colony inhibition): 0.7 µg/mL (≈ 1.37 µM)
IC50 [2]: 99 µg/mL (≈ 193 µM)
T/C % ([3]; 1.6 mg/Kg i.v. on day 1): 183%
TOX (toxic death) ([3]; 1.6 mg/Kg i.v. on day 1): 0/10
T/C % ([3]; 1.9 mg/Kg i.v. on day 1): 192%
TOX (toxic death) ([3]; 1.9 mg/Kg i.v. on day 1): 0/10
T/C % ([3]; 2.29 mg/Kg i.v. on day 1): 200%
TOX (toxic death) ([3]; 2.29 mg/Kg i.v. on day 1): 1/10
